{"source": "patent US20100105098A1", "about": "“Methods of Identifying Disease Biomarkers in the Lense of the Eye” (priority 2006, published 2010)", "key": {"cultured lens": {"test_system": "cultured lens", "conditions": "bolus of 250 μM H2O2, incubated for 24 hrs", "description": "FIG. 26: Cultured lens exposed to a bolus of 250 μM H2O2 incubated for 24 hrs.\nOptimizing sensitivity for Raman. […] In previous in vitro studies Laser probes at 514 nm (82), and 647 nm (34) wavelengths were used for detection and characterization of Aβ-metal complex signature intensities in situ in lenses."}, "[1]": {"conditions": "in vitro, cited from earlier work"}}, "data": [{"compound": "OO", "note": "[H2O2, hydrogen peroxide]", "values": [{"measurement": "light scattering indicative of lens opacification", "setting": "cultured lens", "result": "increases over time"}]}, {"compound": "Aβ1-40: human β-amyloid peptide, 1-40 amino acid form derived from APP", "values": [{"measurement": "H2O2 produced relative to Aβ1-42 peptides", "setting": "[1]; human peptides", "result": "~50", "unit": "%"}]}, {"compound": "rat Aβ1-40: rat β-amyloid peptide 1-40, lacking two key metal chelating amino acids (DAEFGHDSGFEVRHQKLVFFAEDVGSNKGAIIGLMVGGVV; Amyloid-beta protein 40; UniProt P08592 672-711, looked up, fragment)", "values": [{"measurement": "H2O2 produced relative to human Aβ1-40", "setting": "[1]; rat peptides", "result": "~20", "unit": "%"}]}]}
